Laboratory results: patent US20230085307A1, “PYRIDAZINONE COMPOUND AND HERBICIDE” (NISSAN CHEMICAL CORPORATION, priority 2019, published 2023)

How the values were obtained:
late watergrass = assay: Test Example 1: herbicidal activity, application before weed generation under submerged conditions (Table 16, symbol A); assay type: in vivo, late watergrass (Echinochloa oryzicola); details: amount of applied herbicide 320 g/ha
In short: (§1)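 Alluvial soil was flooded to 4 cm depth, weed seeds were sown mixed and 2.5-leaf rice seedlings were transplanted. On sowing day, the compound's emulsion, diluted in water to a set dose, was applied to the water surface. Plants grew at 25–30 °C and were scored 0–5 after three weeks.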

Japanese bulrush = assay: Test Example 1: herbicidal activity, application before weed generation under submerged conditions (Table 16, symbol B); assay type: in vivo, Japanese bulrush (Schoenoplectus juncoides); details: amount of applied herbicide 320 g/ha
In short: as §1

oval-leafed pondweed = assay: Test Example 1: herbicidal activity, application before weed generation under submerged conditions (Table 16, symbol C); assay type: in vivo, oval-leafed pondweed (Monochoria vaginalis); details: amount of applied herbicide 320 g/ha
In short: as §1

barnyard grass [1] = assay: Test Example 3: herbicidal effect by foliage application, Wagner pot (Table 18, symbol H); assay type: in vivo, barnyard grass (Echinochloa crus-galli); details: 320 g/ha
In short: (§2)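 Plants were sown in alluvial soil held under 0.1–0.5 cm standing water and grown 14 days in a greenhouse at 25–30 °C. An emulsifiable formulation, water-diluted to the set dose, was then sprayed onto the foliage, and effects were scored three weeks later using previously defined criteria.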

Chinese sprangletop = assay: Test Example 3: herbicidal effect by foliage application, Wagner pot (Table 18, symbol D); assay type: in vivo, chinese sprangletop (Leptochloa chinensis); details: 320 g/ha
In short: as §2

rice flat sedge = assay: Test Example 3: herbicidal effect by foliage application, Wagner pot (Table 18, symbol E); assay type: in vivo, rice flat sedge (Cyperus iria); details: 320 g/ha
In short: as §2

southern crabgrass [2] = assay: Test Example 4: herbicidal effect by soil treatment (Table 19, symbol F); assay type: in vivo, southern crabgrass (Digitaria ciliaris); details: amount of applied herbicide 320 g/ha
In short: (§3)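 In this soil treatment, the formulated compound reached the seeds only through the soil: seeds were buried about 1.5 cm deep in sterilized diluvial soil, then the diluted emulsion was sprayed over the surface. After three weeks at 25° C. to 30° C. in a greenhouse, effects were graded on criteria from an earlier test.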

green foxtail [3] = assay: Test Example 4: herbicidal effect by soil treatment (Table 19, symbol G); assay type: in vivo, green foxtail (Setaria viridis); details: amount of applied herbicide 320 g/ha
In short: as §3

barnyard grass [4] = assay: Test Example 4: herbicidal effect by soil treatment (Table 19, symbol H); assay type: in vivo, barnyard grass (Echinochloa crus-galli); details: amount of applied herbicide 320 g/ha
In short: as §3

wild oat [5] = assay: Test Example 4: herbicidal effect by soil treatment (Table 19, symbol I); assay type: in vivo, wild oat (Avena fatua); details: amount of applied herbicide 320 g/ha
In short: as §3

blackgrass [6] = assay: Test Example 4: herbicidal effect by soil treatment (Table 19, symbol J); assay type: in vivo, blackgrass (Alopecurus myosuroides); details: amount of applied herbicide 320 g/ha
In short: as §3

Italian ryegrass [7] = assay: Test Example 4: herbicidal effect by soil treatment (Table 19, symbol K); assay type: in vivo, Italian ryegrass (Lolium multiflorum); details: amount of applied herbicide 320 g/ha
In short: as §3

windgrass [8] = assay: Test Example 4: herbicidal effect by soil treatment (Table 19, symbol L); assay type: in vivo, windgrass (Apera spica-venti); details: amount of applied herbicide 320 g/ha
In short: as §3

velvetleaf [9] = assay: Test Example 4: herbicidal effect by soil treatment (Table 19, symbol M); assay type: in vivo, velvetleaf (Abutilon theophrasti); details: amount of applied herbicide 320 g/ha
In short: as §3

redroot pigweed [10] = assay: Test Example 4: herbicidal effect by soil treatment (Table 19, symbol N); assay type: in vivo, redroot pigweed (Amaranthus retroflexus); details: amount of applied herbicide 320 g/ha
In short: as §3

lambsquarters [11] = assay: Test Example 4: herbicidal effect by soil treatment (Table 19, symbol O); assay type: in vivo, lambsquarters (Chenopodium album); details: amount of applied herbicide 320 g/ha
In short: as §3

chickweed [12] = assay: Test Example 4: herbicidal effect by soil treatment (Table 19, symbol P); assay type: in vivo, common chickweed (Stellaria media); details: amount of applied herbicide 320 g/ha
In short: as §3

false cleavers [13] = assay: Test Example 4: herbicidal effect by soil treatment (Table 19, symbol Q); assay type: in vivo, false cleavers (Galium spurium); details: amount of applied herbicide 320 g/ha
In short: as §3

persian speedwell [14] = assay: Test Example 4: herbicidal effect by soil treatment (Table 19, symbol R); assay type: in vivo, Persian speedwell (Veronica persica); details: amount of applied herbicide 320 g/ha
In short: as §3

southern crabgrass [15] = assay: Test Example 5: herbicidal effect by foliage application, plastic box (Table 20, symbol F); assay type: in vivo, southern crabgrass (Digitaria ciliaris)
In short: (§4)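 Plants were sown into sterilized diluvial soil under about 1.5 cm cover and kept in a greenhouse at 25° C. to 30° C. Fourteen days on, foliage received an even spray of the diluted emulsion. Herbicidal or crop effect was judged three weeks afterwards.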

green foxtail [16] = assay: Test Example 5: herbicidal effect by foliage application, plastic box (Table 20, symbol G); assay type: in vivo, green foxtail (Setaria viridis)
In short: as §4

barnyard grass [17] = assay: Test Example 5: herbicidal effect by foliage application, plastic box (Table 20, symbol H); assay type: in vivo, barnyard grass (Echinochloa crus-galli)
In short: as §4

wild oat [18] = assay: Test Example 5: herbicidal effect by foliage application, plastic box (Table 20, symbol I); assay type: in vivo, wild oat (Avena fatua)
In short: as §4

blackgrass [19] = assay: Test Example 5: herbicidal effect by foliage application, plastic box (Table 20, symbol J); assay type: in vivo, blackgrass (Alopecurus myosuroides)
In short: as §4

Italian ryegrass [20] = assay: Test Example 5: herbicidal effect by foliage application, plastic box (Table 20, symbol K); assay type: in vivo, Italian ryegrass (Lolium multiflorum)
In short: as §4

windgrass [21] = assay: Test Example 5: herbicidal effect by foliage application, plastic box (Table 20, symbol L); assay type: in vivo, windgrass (Apera spica-venti)
In short: as §4

velvetleaf [22] = assay: Test Example 5: herbicidal effect by foliage application, plastic box (Table 20, symbol M); assay type: in vivo, velvetleaf (Abutilon theophrasti)
In short: as §4

redroot pigweed [23] = assay: Test Example 5: herbicidal effect by foliage application, plastic box (Table 20, symbol N); assay type: in vivo, redroot pigweed (Amaranthus retroflexus)
In short: as §4

lambsquarters [24] = assay: Test Example 5: herbicidal effect by foliage application, plastic box (Table 20, symbol O); assay type: in vivo, lambsquarters (Chenopodium album)
In short: as §4

chickweed [25] = assay: Test Example 5: herbicidal effect by foliage application, plastic box (Table 20, symbol P); assay type: in vivo, common chickweed (Stellaria media)
In short: as §4

false cleavers [26] = assay: Test Example 5: herbicidal effect by foliage application, plastic box (Table 20, symbol Q); assay type: in vivo, false cleavers (Galium spurium)
In short: as §4

persian speedwell [27] = assay: Test Example 5: herbicidal effect by foliage application, plastic box (Table 20, symbol R); assay type: in vivo, Persian speedwell (Veronica persica)
In short: as §4

[28] = foliage application, 320 g/ha, three weeks after application
[29] = amount of applied herbicide 320 g/ha, foliage application after 14-day growth, evaluated three weeks after application

Structure (SMILES)	Herbicidal effect, A: late watergrass (late watergrass)	Herbicidal effect, B: Japanese bulrush (Japanese bulrush)	Herbicidal effect, C: oval-leafed pondweed (oval-leafed pondweed)	herbicidal effect on barnyard grass (H) (barnyard grass [1])	herbicidal effect on Chinese sprangletop (D) (Chinese sprangletop)	herbicidal effect on rice flat sedge (E) (rice flat sedge)	F: southern crabgrass, herbicidal effect grade (southern crabgrass [2])	G: green foxtail, herbicidal effect grade (green foxtail [3])	H: barnyard grass, herbicidal effect grade (barnyard grass [4])	I: wild oat, herbicidal effect grade (wild oat [5])	J: blackgrass, herbicidal effect grade (blackgrass [6])	K: Italian ryegrass, herbicidal effect grade (Italian ryegrass [7])	L: windgrass, herbicidal effect grade (windgrass [8])	M: velvetleaf, herbicidal effect grade (velvetleaf [9])	N: redroot pigweed, herbicidal effect grade (redroot pigweed [10])	O: lambsquarters, herbicidal effect grade (lambsquarters [11])	P: chickweed, herbicidal effect grade (chickweed [12])	Q: false cleavers, herbicidal effect grade (false cleavers [13])	R: persian speedwell, herbicidal effect grade (persian speedwell [14])	other results
CCCC(=O)Oc1c(C)nn(C)c(=O)c1-c1c(-c2ccc(SC)cc2)sc2cc(OC)ccc12 [3-075]	1 (Herbicidal rate of 5% or more and less than 20%)	1 (Herbicidal rate of 5% or more and less than 20%)	2 (Herbicidal rate of 20% or more and less than 40%)	0 (Herbicidal rate of 5% or less (almost no effect))	3 (Herbicidal rate of 40% or more and less than 70%)	3 (Herbicidal rate of 40% or more and less than 70%)	0 (Herbicidal rate of 5% or less (almost no effect))	0 (Herbicidal rate of 5% or less (almost no effect))	0 (Herbicidal rate of 5% or less (almost no effect))	0 (Herbicidal rate of 5% or less (almost no effect))	0 (Herbicidal rate of 5% or less (almost no effect))	0 (Herbicidal rate of 5% or less (almost no effect))	0 (Herbicidal rate of 5% or less (almost no effect))	0 (Herbicidal rate of 5% or less (almost no effect))	3 (Herbicidal rate of 40% or more and less than 70%)	3 (Herbicidal rate of 40% or more and less than 70%)	2 (Herbicidal rate of 20% or more and less than 40%)	0 (Herbicidal rate of 5% or less (almost no effect))	4 (Herbicidal rate of 70% or more and less than 90%)	F: southern crabgrass, herbicidal effect grade (southern crabgrass [15]; [28]): 3 (Herbicidal rate of 40% or more and less than 70%); G: green foxtail, herbicidal effect grade (green foxtail [16]; [28]): 3 (Herbicidal rate of 40% or more and less than 70%); H: barnyard grass, herbicidal effect grade (barnyard grass [17]; [28]): 3 (Herbicidal rate of 40% or more and less than 70%); I: wild oat, herbicidal effect grade (wild oat [18]; [28]): 0 (Herbicidal rate of 5% or less (almost no effect)); J: blackgrass, herbicidal effect grade (blackgrass [19]; [28]): 0 (Herbicidal rate of 5% or less (almost no effect)); K: Italian ryegrass, herbicidal effect grade (Italian ryegrass [20]; [28]): 0 (Herbicidal rate of 5% or less (almost no effect)); L: windgrass, herbicidal effect grade (windgrass [21]; [28]): 0 (Herbicidal rate of 5% or less (almost no effect)); M: velvetleaf, herbicidal effect grade (velvetleaf [22]; [28]): 0 (Herbicidal rate of 5% or less (almost no effect)); N: redroot pigweed, herbicidal effect grade (redroot pigweed [23]; [28]): 4 (Herbicidal rate of 70% or more and less than 90%); O: lambsquarters, herbicidal effect grade (lambsquarters [24]; [28]): 4 (Herbicidal rate of 70% or more and less than 90%); P: chickweed, herbicidal effect grade (chickweed [25]; [28]): 5 (Herbicidal rate of 90% or more (almost completely withered)); Q: false cleavers, herbicidal effect grade (false cleavers [26]; [28]): 5 (Herbicidal rate of 90% or more (almost completely withered)); R: persian speedwell, herbicidal effect grade (persian speedwell [27]; [28]): 5 (Herbicidal rate of 90% or more (almost completely withered))
CCCC(=O)Oc1c(C)nn(C)c(=O)c1-c1c(-c2ccccc2OCC)sc2cc(F)c(F)cc12 [5-017]	3 (Herbicidal rate of 40% or more and less than 70%)	2 (Herbicidal rate of 20% or more and less than 40%)	2 (Herbicidal rate of 20% or more and less than 40%)	5 (Herbicidal rate of 90% or more (almost completely withered))	0 (Herbicidal rate of 5% or less (almost no effect))	5 (Herbicidal rate of 90% or more (almost completely withered))	4 (Herbicidal rate of 70% or more and less than 90%)	4 (Herbicidal rate of 70% or more and less than 90%)	4 (Herbicidal rate of 70% or more and less than 90%)	3 (Herbicidal rate of 40% or more and less than 70%)	0 (Herbicidal rate of 5% or less (almost no effect))	0 (Herbicidal rate of 5% or less (almost no effect))	2 (Herbicidal rate of 20% or more and less than 40%)	3 (Herbicidal rate of 40% or more and less than 70%)	5 (Herbicidal rate of 90% or more (almost completely withered))	4 (Herbicidal rate of 70% or more and less than 90%)	4 (Herbicidal rate of 70% or more and less than 90%)	4 (Herbicidal rate of 70% or more and less than 90%)	5 (Herbicidal rate of 90% or more (almost completely withered))	Herbicidal effect by foliage application, F: southern crabgrass (southern crabgrass [15]; [29]): 1 (Herbicidal rate of 5% or more and less than 20%); Herbicidal effect by foliage application, G: green foxtail (green foxtail [16]; [29]): 0 (Herbicidal rate of 5% or less (almost no effect)); Herbicidal effect by foliage application, H: barnyard grass (barnyard grass [17]; [29]): 3 (Herbicidal rate of 40% or more and less than 70%); Herbicidal effect by foliage application, I: wild oat (wild oat [18]; [29]): 3 (Herbicidal rate of 40% or more and less than 70%); Herbicidal effect by foliage application, J: blackgrass (blackgrass [19]; [29]): 4 (Herbicidal rate of 70% or more and less than 90%); Herbicidal effect by foliage application, K: Italian ryegrass (Italian ryegrass [20]; [29]): 0 (Herbicidal rate of 5% or less (almost no effect)); Herbicidal effect by foliage application, L: windgrass (windgrass [21]; [29]): 3 (Herbicidal rate of 40% or more and less than 70%); Herbicidal effect by foliage application, M: velvetleaf (velvetleaf [22]; [29]): 4 (Herbicidal rate of 70% or more and less than 90%); Herbicidal effect by foliage application, N: redroot pigweed (redroot pigweed [23]; [29]): 2 (Herbicidal rate of 20% or more and less than 40%); Herbicidal effect by foliage application, O: lambsquarters (lambsquarters [24]; [29]): 1 (Herbicidal rate of 5% or more and less than 20%); Herbicidal effect by foliage application, P: chickweed (chickweed [25]; [29]): 5 (Herbicidal rate of 90% or more (almost completely withered)); Herbicidal effect by foliage application, Q: false cleavers (false cleavers [26]; [29]): 5 (Herbicidal rate of 90% or more (almost completely withered)); Herbicidal effect by foliage application, R: persian speedwell (persian speedwell [27]; [29]): 5 (Herbicidal rate of 90% or more (almost completely withered))
